Assay results: patent US20260335398A1, “METHODS FOR TREATING PANCREATIC CANCER WITH A COMBINATION OF DES-METHYL PATEAMINE A AND A CLASS I HDAC INHIBITOR” (Baylor University, priority 2023, published 2026)

What was measured:
Format in all cases: cell-based
[1] = test system: PANC-1, PANC 02.13, MIA PaCa-2, Capan-1, KLM, AsPC-1 and BXPC3 cells; test: Cytotoxicity/cell viability with romidepsin, DMPatA and their combination in seven PDAC cell lines (FIG. 1A); details: romidepsin 15 nM for 6 h, alone or with DMPatA 2 nM
Description: FIG. 1A compares cytotoxicity graphs of the effect of romidepsin alone at increasing doses (circles), DMPatA alone at 2 nM (diamond), and combination of romidepsin with DMPatA at 2 nM (triangles) on PANC-1, PANC 02.13, MIA PaCa-2, Capan-1, KLM, AsPC-1 and BXPC3 cells. Romidepsin treatment in both the single agent and the combination was for 6 hours after which it was washed out and medium replaced with fresh medium without (single agent romidepsin) or with DMPatA for an additional 42 hours (combination).
This schedule of romidepsin treatment features a 6-hour exposure followed by washout of romidepsin and replacement with fresh media, whereas most investigators expose cells to 1-2 nM over 48-96 hours of continuous romidepsin. […] Thus a 6-hour exposure is more clinically relevant. Most cell types are susceptible to romidepsin over non-clinically relevant long treatment durations.
It was initially hypothesized that the HDAC-inhibitor romidepsin could cause synergistic cell death when combined with DMPatA via a reduction in MYC levels previously seen with both eIF4A inhibitors and with romidepsin in KRAS cells. […]
Cell viability was determined using CellTiter-Glo® reagent (Promega, #G7570) following the manufacturer's instructions. […] After incubation, assay reagent was added, and luminescent signals were quantified using a microplate reader (PHERAstar® FS, BMG LABTECH, Ortenberg, Germany). […]

[2] = test system: VGF and HBA2 loci; test: DRIP-qPCR R-loop accumulation at VGF and HBA2 loci (FIG. 10A); details: MIA PaCa-2, 6+3 hours
Description: FIG. 10A illustrates the fold increase in the percent of input values in DRIP-qPCR for the VGF, HBA2, and SNRPN loci in MIA PaCa-2 cells treated with or without the combination or single agents. Genomic DNA was treated in vitro with or without RNaseH1 before immunoprecipitation using S9.6 antibody. Treatment was for 6+3 hours (i.e., 6-hour romidepsin followed by 3-hour washout with 2 nM DMPatA (combo) or without). Statistical significance was determined by 3-way ANOVA, ***p value<0.001. This experiment confirms the formation of R-loops at the investigated gene loci.
Romidepsin-induced histone hyperacetylation leads to the accumulation of R-loops that can increase genome instability. Because treatment of cells with the combination increased global transcription and led to persistence of histone hyperacetylation, it was postulated the treatment could similarly enhance the formation of R-loops and contribute to cell death. R-loop accumulation was further confirmed using DRIP-qPCR. […]
DRIP assay was performed according to the method previously described (Sanz L A, Chédin F. High-resolution, strand-specific R-loop mapping via S9. 6-based DNA-RNA immunoprecipitation and high-throughput sequencing. Nature protocols. 2019; 14(6):1734). […] Quantitative PCR was performed at the R-loop positive loci VGF and HBA2 genes and R-loop negative locus SNRPN gene with the primers listed in Table 1.

[3] = test system: p-RPA; test: Immunoblot of phospho-RPA2 (FIG. 11A); details: total 24 h (romidepsin 6 h + 18 h with/without 2 nM DMPatA)
Description: FIG. 11A compares immunoblots of p-RPA and p-CHK1 protein levels from whole cell extracts following treatment with the combination and romidepsin for a total of 24 h (i.e., romidepsin treatment was for 6 h followed by 18-hour incubation with 2 nM DMPatA (combo) or without (Romi alone)).
Having observed R-loop accumulation following treatment with the combination, it was hypothesized that hypertranscription, persistent hyperacetylation, and R-loop accumulation could increase the incidence of transcription replication conflicts, genome instability, and DNA damage and contribute to cell death. […]
Western blotting was carried out as previously described (Luchenko V L, Litman T, Chakraborty A R, et al. 65. Membranes were probed with primary antibodies: Phospho-Histone H2A.X (Ser139) (1:1000, Millipore Sigma #05-636), GAPDH (1:10000, Abcam #ab8245), c-Myc (1:1000, Abcam #ab32072), β-Actin (1:1000, Cell Signaling Technology (CST), #8457), Phospho-RPA32/RPA2 (Ser33) (1:1000, Cell Signaling Technology #10148), Phospho-Chk1 (Ser345) (1:1000, CST #2341), and secondary antibodies IRDye® 680RD Goat anti-Mouse and IRDye® 800CW Goat anti-Rabbit (both from LI-COR Biosciences). Signal quantification was performed using the Odyssey CLx imaging system (LI-COR Biosciences), capturing various exposures within the linear range with ImageStudio software V3.1 (LI-COR Biosciences).

## C/C=C1\NC(=O)[C@H]2CSSCC/C=C/[C@H](CC(=O)N[C@H](C(C)C)C(=O)N2)OC(=O)[C@H](C(C)C)NC1=O [romidepsin]
[1]
  toxicity / lethality at low concentration: minimal to no toxicity
[2]
  R-loop accumulation (percent of input, DRIP-qPCR): significant increase in the percent of input
[3]
  phospho-RPA2: Accumulation
